pIC50: −log10 of the molar value. ≈ marks a conversion by molar mass, not a printed value. Read-outs that look alike come from different tables or passages of the source.
Assays:
CYP2A6 = biological target: T1, CYP2A6 (Homo sapiens, UniProt P11509); test: CYP2A6 inhibition in human liver microsomes (substrate coumarin); type: in vitro ADME
T1 sequence (P11509 1-494): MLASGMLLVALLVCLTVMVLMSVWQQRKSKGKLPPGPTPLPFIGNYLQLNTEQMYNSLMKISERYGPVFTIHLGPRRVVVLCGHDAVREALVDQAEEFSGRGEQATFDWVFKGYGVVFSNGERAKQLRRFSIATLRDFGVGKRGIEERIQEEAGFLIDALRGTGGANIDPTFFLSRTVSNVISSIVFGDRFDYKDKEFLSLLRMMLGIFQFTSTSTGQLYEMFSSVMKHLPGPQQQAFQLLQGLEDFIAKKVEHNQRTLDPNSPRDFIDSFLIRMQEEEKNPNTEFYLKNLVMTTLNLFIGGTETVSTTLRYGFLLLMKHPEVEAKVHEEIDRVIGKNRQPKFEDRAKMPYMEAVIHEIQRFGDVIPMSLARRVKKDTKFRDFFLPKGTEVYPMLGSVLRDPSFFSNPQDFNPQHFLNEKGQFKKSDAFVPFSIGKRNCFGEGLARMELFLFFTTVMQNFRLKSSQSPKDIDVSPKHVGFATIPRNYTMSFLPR
Protocol: (§1) The highest concentration of GE used in the assay was 500 µg/mL equivalent. Stock solution for each CYP specific probe substrate was prepared in such a way that the final concentration is below the reported Km value.
(§2) A microsome-buffer-substrate mixture (MBS mix) was prepared for each isozyme by pre-mixing appropriate volumes of sodium phosphate buffer (pH 7.4, 50 mM), microsomes and substrate (Table S2 in File S1). 179 µL of MBS mix was transferred to 96-well reaction plate to which 1 µL of inhibitor stock solution was added to achieve the final target inhibitor concentration. The reaction plate was pre-incubated for 10 min at 37°C followed by reaction initiation by addition of 20 µL of 10 mM NADPH solution. The reaction plate was then incubated at 37°C for a predetermined time period following which it was quenched with 200 µL ACN for all CYPs and 200 µL 1% formic acid in water∶ACN (70∶30) for CYP1A2. In all cases, the final incubations after addition of substrate and inhibitor contained 0.1% DMSO (v/v), and the total organic solvent (DMSO and ACN) content was less than or equal to 1% (v/v). […] The incubations were performed in singlet for individual gingerols and in duplicate for GE along with respective positive controls.
(§3) The IC50 value was estimated from the percentage reduction in CYP activity at eleven inhibitor concentrations with respect to control.

[1] = Caco-2 permeability assay; details: human; for recovery at 120 min, 10 µM: Caco-2, pH 7.4, Mass Balance (recovery); for Papp at 120 min, 10 µM: Caco-2, pH 7.4, Papp, n = 3, mean ± SD
Protocol: Caco-2 cells were seeded on tissue culture inserts at a density of 80,000 cells/insert. The cells were maintained for 21 days in culture medium to enable differentiation and formation of the monolayer. The culture medium was changed every alternate day.
Stock solutions (1 mM) of individual gingerols were prepared in DMSO, which were then spiked into the buffer to obtain a final assay concentration of 10 µM. HBSS-HEPES buffer was prepared by dissolving 9.7 g Hank's balanced salts, 0.37 g sodium bicarbonate, 3.50 g glucose and 2.38 g HEPES in Milli-Q water (1 L). The pH of the buffer was adjusted to 7.4 using either 1N hydrochloric acid or 1N sodium hydroxide.
Permeability of gingerols (10 µM) was determined in apical to basolateral (A-B) and basolateral to apical (B-A) directions. Transport studies were conducted between 21–25 days post seeding in 12-well Transwell inserts. Following pre-incubation in HBSS-HEPES buffer at 37°C, 5% CO2 for 30 min, buffer was removed and gingerols spiked buffer was added to each donor compartment (triplicate wells). Blank HBSS-HEPES buffer containing 1% DMSO was added to the receiver compartment. Samples were withdrawn from the receiver chamber at 30, 60, 90, and 120 min, and from the donor chamber at 0 and 120 min. The samples were collected in tubes containing equal volume of ACN. The withdrawn volume was replaced with buffer containing 1% DMSO. At the end of the experiment, cells were washed with ice-cold buffer and lysed with ACN to assess cell accumulation and estimate the recovery. Monolayers with transepithelial electrical resistance (TEER) above 300 Ωcm^2 were considered for the assay and after the assay TEER values were above 300 Ωcm^2 confirming the monolayer integrity during the experiment.
Samples were processed using protein precipitation method and analyzed using LC/MS/MS. A calibration curve (CC) of 5 nM to 10,000 nM range was employed to quantify the samples. […] Separation was achieved using Zorbax C18 column (50×4.6 mm, 3.5 µ, Agilent) for 8G, 10G, 6S and using Hypurity C18 column (100×4.6 mm, 5 µ, Thermo) for 6G. An injection volume of 20 µL was used for all samples and a flow rate of 0.6 mL/min (6G) and 1 mL/min (8G, 10G and 6S) was used for elution.
Cumulative amount of gingerols transported at each time point was plotted as function of time. The slope was used to calculate the rate of appearance of gingerols (dQ/dt).
Apparent permeability (Papp) was calculated using the formula [drawing 4] dQ/dt – rate of transport to receiver side

CYP2C9 = CYP2C9 (Homo sapiens, UniProt P11712); test: CYP2C9 inhibition in human liver microsomes (substrate diclofenac)
Sequence of CYP2C9 (P11712 whole entry): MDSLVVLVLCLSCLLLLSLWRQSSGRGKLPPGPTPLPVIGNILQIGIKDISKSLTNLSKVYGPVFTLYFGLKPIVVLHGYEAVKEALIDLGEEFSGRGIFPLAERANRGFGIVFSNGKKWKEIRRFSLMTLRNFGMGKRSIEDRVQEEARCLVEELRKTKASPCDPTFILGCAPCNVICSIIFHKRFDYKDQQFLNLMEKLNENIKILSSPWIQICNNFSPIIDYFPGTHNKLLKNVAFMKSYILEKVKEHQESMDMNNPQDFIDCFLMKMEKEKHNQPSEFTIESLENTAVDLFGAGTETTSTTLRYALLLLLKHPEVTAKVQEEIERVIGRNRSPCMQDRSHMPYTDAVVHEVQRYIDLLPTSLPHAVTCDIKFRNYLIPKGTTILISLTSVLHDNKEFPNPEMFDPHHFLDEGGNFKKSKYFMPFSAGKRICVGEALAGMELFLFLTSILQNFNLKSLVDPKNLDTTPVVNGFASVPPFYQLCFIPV
Protocol: Stock solution for each CYP specific probe substrate was prepared in such a way that the final concentration is below the reported Km value.
A microsome-buffer-substrate mixture (MBS mix) was prepared for each isozyme by pre-mixing appropriate volumes of sodium phosphate buffer (pH 7.4, 50 mM), microsomes and substrate (Table S2 in File S1). 179 µL of MBS mix was transferred to 96-well reaction plate to which 1 µL of inhibitor stock solution was added to achieve the final target inhibitor concentration. The reaction plate was pre-incubated for 10 min at 37°C followed by reaction initiation by addition of 20 µL of 10 mM NADPH solution. The reaction plate was then incubated at 37°C for a predetermined time period following which it was quenched with 200 µL ACN for all CYPs and 200 µL 1% formic acid in water∶ACN (70∶30) for CYP1A2. In all cases, the final incubations after addition of substrate and inhibitor contained 0.1% DMSO (v/v), and the total organic solvent (DMSO and ACN) content was less than or equal to 1% (v/v). The details of final substrate concentration, incubation time, microsomal protein concentration in the reaction mixtures and the metabolites monitored for each isozyme tested are presented in Table S3 in File S1.
All samples were processed using protein precipitation method and analyzed by employing positive (for all CYPs) and negative (for CYP2A6, 2C19 and 2E1) ionization mode in liquid chromatography tandem mass spectrometry (API4000, Applied Biosystems, USA). The peak area ratio of analyte to IS was used for calculations. An isocratic method comprising 5 mM ammonium formate and ACN (40∶60) with 0.05% formic acid was used for elution. For CYP2C19, a mobile phase consisting of 5 mM ammonium formate and ACN (30∶70) was used. The analytes and internal standards were retained on BDS Hypersil Phenyl (150×4.6 mm, 5 µ, Thermo, USA) column. A flow rate of 0.5 mL/min (CYP1A2), 0.6 mL/min (CYP2C19, CYP2E1), 0.7 mL/min (CYP2C9), 0.8 mL/min (CYP2A6, CYP3A), 1.0 mL/min (CYP2B6, CYP2C8, CYP2D6) was maintained using Shimadzu Prominence solvent delivery system (LC-20AD). The mobile phase was degassed using degasser (DGU-20A3), samples were loaded into autosampler (SIL-HTc) and the column temperature was maintained at 40°C by column oven (CTO-20A). Injection volumes for the samples were as follows: 5 µL (CYP1A2, CYP2D6, and CYP3A), 10 µL (CYP2B6, CYP2C8, and CYP2E1) and 20 µL (CYP2A6, CYP2C9, and CYP2C19). Data was collected and processed using Sciex Analyst 1.4.2. […]
The data was analysed using 4PL (parameter logistic model), 3PLFB (bottom fixed), 3PLFT (top fixed), 2PL (top and bottom fixed), and the relative IC50 was with lowest standard error was further manipulation. Absolute IC50 was calculated from this relative IC50 by using the equation below: [drawing 3]

CYP2C19 = CYP2C19 (Homo sapiens, UniProt P33261); test: CYP2C19 inhibition in human liver microsomes (substrate (S)-mephenytoin); type: in vitro ADME
Sequence of CYP2C19 (P33261 whole entry): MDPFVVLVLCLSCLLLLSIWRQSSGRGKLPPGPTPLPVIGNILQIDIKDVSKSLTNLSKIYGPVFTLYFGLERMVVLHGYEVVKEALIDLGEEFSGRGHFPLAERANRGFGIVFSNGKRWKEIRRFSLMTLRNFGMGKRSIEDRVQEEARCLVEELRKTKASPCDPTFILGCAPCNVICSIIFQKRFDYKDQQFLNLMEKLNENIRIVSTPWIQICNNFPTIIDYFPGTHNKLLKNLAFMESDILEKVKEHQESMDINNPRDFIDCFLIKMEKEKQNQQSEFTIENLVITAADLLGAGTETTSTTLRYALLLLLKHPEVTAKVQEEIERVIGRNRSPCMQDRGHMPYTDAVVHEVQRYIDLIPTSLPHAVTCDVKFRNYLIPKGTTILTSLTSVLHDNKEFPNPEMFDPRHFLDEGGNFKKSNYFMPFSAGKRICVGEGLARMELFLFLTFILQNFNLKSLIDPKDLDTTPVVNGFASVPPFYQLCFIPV
Protocol: as §1
(§4) A microsome-buffer-substrate mixture (MBS mix) was prepared for each isozyme by pre-mixing appropriate volumes of sodium phosphate buffer (pH 7.4, 50 mM), microsomes and substrate (Table S2 in File S1). 179 µL of MBS mix was transferred to 96-well reaction plate to which 1 µL of inhibitor stock solution was added to achieve the final target inhibitor concentration. The reaction plate was pre-incubated for 10 min at 37°C followed by reaction initiation by addition of 20 µL of 10 mM NADPH solution. The reaction plate was then incubated at 37°C for a predetermined time period following which it was quenched with 200 µL ACN for all CYPs and 200 µL 1% formic acid in water∶ACN (70∶30) for CYP1A2. In all cases, the final incubations after addition of substrate and inhibitor contained 0.1% DMSO (v/v), and the total organic solvent (DMSO and ACN) content was less than or equal to 1% (v/v). The details of final substrate concentration, incubation time, microsomal protein concentration in the reaction mixtures and the metabolites monitored for each isozyme tested are presented in Table S3 in File S1. The incubations were performed in singlet for individual gingerols and in duplicate for GE along with respective positive controls.
(§5) All samples were processed using protein precipitation method and analyzed by employing positive (for all CYPs) and negative (for CYP2A6, 2C19 and 2E1) ionization mode in liquid chromatography tandem mass spectrometry (API4000, Applied Biosystems, USA). The peak area ratio of analyte to IS was used for calculations. An isocratic method comprising 5 mM ammonium formate and ACN (40∶60) with 0.05% formic acid was used for elution. For CYP2C19, a mobile phase consisting of 5 mM ammonium formate and ACN (30∶70) was used. The analytes and internal standards were retained on BDS Hypersil Phenyl (150×4.6 mm, 5 µ, Thermo, USA) column. A flow rate of 0.5 mL/min (CYP1A2), 0.6 mL/min (CYP2C19, CYP2E1), 0.7 mL/min (CYP2C9), 0.8 mL/min (CYP2A6, CYP3A), 1.0 mL/min (CYP2B6, CYP2C8, CYP2D6) was maintained using Shimadzu Prominence solvent delivery system (LC-20AD). The mobile phase was degassed using degasser (DGU-20A3), samples were loaded into autosampler (SIL-HTc) and the column temperature was maintained at 40°C by column oven (CTO-20A). […]

CYP2B6 = biological target: T2, CYP2B6 (Homo sapiens, UniProt P20813); test: CYP2B6 inhibition in human liver microsomes (substrate bupropion); type: in vitro ADME
T2 sequence (P20813 1-491): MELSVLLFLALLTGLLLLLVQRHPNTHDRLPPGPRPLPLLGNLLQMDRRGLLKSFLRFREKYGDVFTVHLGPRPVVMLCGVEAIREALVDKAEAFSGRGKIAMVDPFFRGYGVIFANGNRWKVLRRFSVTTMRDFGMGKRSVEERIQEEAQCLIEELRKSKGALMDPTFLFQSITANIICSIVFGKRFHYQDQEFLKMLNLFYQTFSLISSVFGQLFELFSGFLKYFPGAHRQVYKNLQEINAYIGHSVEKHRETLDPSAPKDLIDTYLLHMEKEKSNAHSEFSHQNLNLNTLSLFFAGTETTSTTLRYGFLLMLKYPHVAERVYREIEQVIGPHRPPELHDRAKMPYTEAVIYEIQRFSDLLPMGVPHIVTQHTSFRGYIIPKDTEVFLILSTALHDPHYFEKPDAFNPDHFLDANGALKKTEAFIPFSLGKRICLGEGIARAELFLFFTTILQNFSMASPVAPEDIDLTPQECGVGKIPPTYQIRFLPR
Protocol: as §1, §2, §3

CYP3A4 = CYP3A4 (Homo sapiens, UniProt P08684); test: CYP3A4 inhibition in human liver microsomes (substrate testosterone); type: in vitro ADME
Sequence of CYP3A4 (P08684 2-503): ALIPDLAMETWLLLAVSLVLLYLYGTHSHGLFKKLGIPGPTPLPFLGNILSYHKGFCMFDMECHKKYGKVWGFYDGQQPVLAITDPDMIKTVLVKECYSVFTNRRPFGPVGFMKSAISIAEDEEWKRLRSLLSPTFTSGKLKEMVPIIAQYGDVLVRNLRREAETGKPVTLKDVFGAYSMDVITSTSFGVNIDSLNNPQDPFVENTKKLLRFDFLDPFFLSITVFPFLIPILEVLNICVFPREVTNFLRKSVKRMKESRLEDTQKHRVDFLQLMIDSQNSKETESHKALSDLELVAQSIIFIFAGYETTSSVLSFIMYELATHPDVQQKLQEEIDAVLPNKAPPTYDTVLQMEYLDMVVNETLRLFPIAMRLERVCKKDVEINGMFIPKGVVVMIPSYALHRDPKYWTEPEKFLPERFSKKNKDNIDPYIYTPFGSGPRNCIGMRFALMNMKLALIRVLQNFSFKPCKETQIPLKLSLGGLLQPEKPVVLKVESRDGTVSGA
Protocol: as §1, §2, §3

CYP2D6 = CYP2D6 (Homo sapiens, UniProt P10635); test: CYP2D6 inhibition in human liver microsomes (substrate dextromethorphan); type: in vitro ADME
Sequence of CYP2D6 (P10635 whole entry): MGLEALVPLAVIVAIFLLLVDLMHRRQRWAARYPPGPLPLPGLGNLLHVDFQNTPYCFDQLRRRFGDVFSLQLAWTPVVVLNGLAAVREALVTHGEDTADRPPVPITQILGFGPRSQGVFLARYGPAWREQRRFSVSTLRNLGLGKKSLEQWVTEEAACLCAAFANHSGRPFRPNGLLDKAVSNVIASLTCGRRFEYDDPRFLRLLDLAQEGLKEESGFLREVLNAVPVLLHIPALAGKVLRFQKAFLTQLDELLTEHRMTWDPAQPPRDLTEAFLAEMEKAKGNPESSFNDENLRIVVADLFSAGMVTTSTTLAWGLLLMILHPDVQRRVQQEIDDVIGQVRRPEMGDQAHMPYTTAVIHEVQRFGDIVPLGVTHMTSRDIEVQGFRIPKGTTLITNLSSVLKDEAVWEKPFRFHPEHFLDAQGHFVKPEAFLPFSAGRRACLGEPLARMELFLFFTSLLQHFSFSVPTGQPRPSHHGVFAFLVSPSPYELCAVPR
Protocol: as §1, §4, §5

[2] = cited from earlier work
[3] = human liver microsomes, substrate coumarin, gingerols and GE
[4] = human liver microsomes, substrate diclofenac, gingerols and GE
[5] = human liver microsomes, substrate (S)-mephenytoin, gingerols and GE
[6] = human liver microsomes, substrate bupropion, gingerols and GE
[7] = human liver microsomes, substrate testosterone, gingerols and GE
[8] = human liver microsomes, substrate dextromethorphan, gingerols and GE
[9] = humans, oral 2 g GE, as glucuronide and sulfate conjugates

With `CCCCC[C@H](O)CC(=O)CCc1ccc(O)c(OC)c1` [6G, 6-gingerol] the pIC50 (CYP2A6) was < 4.01, the efflux ratio at 120 min, 10 µM ([1]; Caco-2, pH 7.4, Efflux Ratio) was < 2 and the recovery at 120 min, 10 µM ([1]; A→B) was < 50%. The recovery at 120 min, 10 µM ([1]; B→A) was 77%, the Papp at 120 min, 10 µM ([1]; A→B) was > 10 ×10⁻⁶ cm/s and the Papp at 120 min, 10 µM ([1]; B→A) was > 10 ×10⁻⁶ cm/s. It also gave a pIC50 (CYP2C9) of 4.56, a pIC50 (CYP2C19) of 4.96 and a pIC50 (CYP2B6) of 4.29. The pIC50 (CYP3A4) was 4.43, the pIC50 (CYP2D6; IC50 CYP2D6, human liver microsomes, substrate dextromethorphan, gingerols and GE) was < 4.01 and the “Cmax / circulating concentration in humans” value ([2]; human, in vivo, po) was 850 ± 430 ng/mL.

With `CCCCC/C=C/C(=O)CCc1ccc(O)c(OC)c1` [6S, 6-shogaol] the “IC50 CYP2A6” value (CYP2A6; [3]) was 23 µg/mL (≈ 83.2 µM), the “IC50 CYP2C9” value (CYP2C9; [4]) was 0.9 µg/mL (≈ 3.26 µM) and the “IC50 CYP2C19” value (CYP2C19; [5]) was 1.1 µg/mL (≈ 3.98 µM). The “IC50 CYP2B6” value (CYP2B6; [6]) was 1.6 µg/mL (≈ 5.79 µM), the “IC50 CYP3A4 (testosterone)” value (CYP3A4; [7]) was 2.3 µg/mL (≈ 8.32 µM) and the “IC50 CYP2D6” value (CYP2D6; [8]) was 24 µg/mL (≈ 86.8 µM). The “Cmax / circulating concentration in humans” value [2, 9] was 150 ± 120 ng/mL.

For `CCCCCCC[C@H](O)CC(=O)CCc1ccc(O)c(OC)c1` [8G, 8-gingerol], the “IC50 CYP2A6” value (CYP2A6; [3]) was 19 µg/mL (≈ 58.9 µM), the “IC50 CYP2C9” value (CYP2C9; [4]) was 2.8 µg/mL (≈ 8.68 µM) and the “IC50 CYP2C19” value (CYP2C19; [5]) was 2.6 µg/mL (≈ 8.06 µM). For the same molecule, the “IC50 CYP2B6” value (CYP2B6; [6]) was 2.6 µg/mL (≈ 8.06 µM), the “IC50 CYP3A4 (testosterone)” value (CYP3A4; [7]) was 2.6 µg/mL (≈ 8.06 µM) and the “IC50 CYP2D6” value (CYP2D6; [8]) was 24 µg/mL (≈ 74.4 µM). For the same molecule, the “Cmax / circulating concentration in humans” value [2, 9] was 230 ± 160 ng/mL.

For `CCCCCCCCC[C@H](O)CC(=O)CCc1ccc(O)c(OC)c1` [10G, 10-gingerol], the “IC50 CYP2A6” value (CYP2A6; microsomes) was 34 µg/mL (≈ 97 µM), the “IC50 CYP2C9” value (CYP2C9; microsomes) was 2.6 µg/mL (≈ 7.42 µM) and the “IC50 CYP2C19” value (CYP2C19; microsomes) was 2.3 µg/mL (≈ 6.56 µM). The “IC50 CYP2B6” value (CYP2B6; microsomes) was 1.5 µg/mL (≈ 4.28 µM), the “IC50 CYP3A4 (testosterone)” value (CYP3A4; microsomes) was 2.5 µg/mL (≈ 7.13 µM) and the “IC50 CYP2D6” value (CYP2D6; microsomes) was 19 µg/mL (≈ 54.2 µM). For the same molecule, the “Cmax / circulating concentration in humans” value [2, 9] was 530 ± 400 ng/mL.
